The test system of series [1] is Chinese Hamster Ovary (CHO) cell line transfected with human cytochrome P450 2D6 (CYP2D6). Description: metabolism of midazolam or bufuralol in CHO cells transfected with human CYP2D6, with or without Ad-3A4/red infection. The following applies: CHO/2D6 cells uninfected or infected with control Ad-GFP; 10 μM, four hours.
A short description of series [2]: blood midazolam concentrations after oral midazolam in wild-type, HRN and Ad-3A4/red virus-infected HRN mice. The note with it: oral 2.5 mg/kg midazolam.

SMILES strings stand for the structures. Bounds are passed on as bounds.

On to `Cc1ncc2n1-c1ccc(Cl)cc1C(c1ccccc1F)=NC2` [midazolam], for which, in series [1], the “midazolam metabolism (1'-hydroxymidazolam formation)” value is reported as “extremely slow”. In series [2] (HRN mice infected with Ad-3A4/red virus (72 h before)), the peak midazolam concentration was determined as 109 ng/mL. Besides, in series [2] (non-infected HRN mice), the “circulating midazolam concentration, peak value” was found to be 260 ng/mL and the “time circulating midazolam remained detectable” value is > 6 h. In series [2] (wild-type mice), the “circulating midazolam concentration, peak value” was found to be 128 ng/mL and the “time until circulating midazolam became undetectable again” value is ≤ 3 h.

These data come from patent US20090013417A1, “Transgenic Animals for Assessing Drug Metabolism and Toxicity in Man” (IMPERIAL CANCER RESEARCH TECHNOLOGY LIMITED, priority 2004, published 2009).
